Legend:
Test in all cases: Test D pre-/postemergence plant response
Type in all cases: in vivo
[1] = tested on: lambsquarters (Chenopodium album); conditions: Postemergence; for Plant response rating (scale 0 to 100), Lambsquarters: 16 g ai/ha; for Plant response rating, Lambsquarters: 125 g ai/ha
Outline: (§1)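 Seeds were planted in a loam and sand blend and sprayed preemergence. In parallel, seedlings grown in peat moss/vermiculite medium were sprayed postemergence at 2 to 18 cm height. Both used a surfactant-containing non-phytotoxic solvent. Greenhouse ratings at 13 to 15 days used a 0–100 control scale.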

[2] = tested on: oilseed rape (Brassica napus); conditions: Postemergence; for Plant response rating (scale 0 to 100), Oilseed Rape: 16 g ai/ha; for Plant response rating, Oilseed Rape: 125 g ai/ha
Outline: as §1

[3] = tested on: barnyardgrass (Echinochloa crus-galli); conditions: Postemergence; for Plant response rating (scale 0 to 100), Barnyardgrass: 16 g ai/ha; for Barnyardgrass plant response rating: 31 g ai/ha, scale 0 to 100 (0 no effect, 100 complete control); for Plant response rating, Barnyardgrass: scale 0 to 100, 0 no effect, 100 complete control
Outline: as §1

[4] = tested on: blackgrass (Alopecurus myosuroides); conditions: Postemergence; for Plant response rating (scale 0 to 100), Blackgrass: 16 g ai/ha; for Blackgrass plant response rating: 31 g ai/ha, scale 0 to 100 (0 no effect, 100 complete control); for Plant response rating, Blackgrass: scale 0 to 100, 0 no effect, 100 complete control
Outline: as §1

[5] = tested on: large (Lg) crabgrass (Digitaria sanguinalis); conditions: Postemergence; for Plant response rating (scale 0 to 100), Crabgrass, Large: 16 g ai/ha; for Crabgrass, Large plant response rating: 31 g ai/ha, scale 0 to 100 (0 no effect, 100 complete control); for Plant response rating, Crabgrass, Large: scale 0 to 100, 0 no effect, 100 complete control
Outline: as §1

[6] = tested on: waterhemp (common waterhemp, Amaranthus rudis); conditions: Postemergence; for Plant response rating (scale 0 to 100), Waterhemp: 16 g ai/ha; for Plant response rating, Waterhemp: 125 g ai/ha
Outline: as §1

[7] = tested on: velvetleaf (Abutilon theophrasti); conditions: Postemergence; for Plant response rating (scale 0 to 100), Velvetleaf: 16 g ai/ha; for Plant response rating, Velvetleaf: 125 g ai/ha
Outline: as §1

[8] = tested on: pigweed (Amaranthus retroflexus); conditions: Postemergence; for Plant response rating (scale 0 to 100), Pigweed: 16 g ai/ha; for Plant response rating, Pigweed: 125 g ai/ha
Outline: as §1

[9] = tested on: Italian ryegrass (Lolium multiflorum); conditions: Postemergence; for Plant response rating (scale 0 to 100), Ryegrass, Italian: 16 g ai/ha; for Plant response rating, Ryegrass, Italian: 125 g ai/ha
Outline: as §1

[10] = tested on: galium (catchweed bedstraw, Galium aparine); conditions: Postemergence; for Plant response rating (scale 0 to 100), Galium: 16 g ai/ha; for Galium plant response rating: 31 g ai/ha, scale 0 to 100 (0 no effect, 100 complete control); for Plant response rating, Galium: scale 0 to 100, 0 no effect, 100 complete control
Outline: as §1

[11] = tested on: johnsongrass (Sorghum halepense); conditions: Postemergence; for Plant response rating (scale 0 to 100), Johnsongrass: 16 g ai/ha; for Johnsongrass plant response rating: 31 g ai/ha, scale 0 to 100 (0 no effect, 100 complete control); for Plant response rating, Johnsongrass: scale 0 to 100, 0 no effect, 100 complete control
Outline: as §1

[12] = tested on: yellow nutsedge (Cyperus esculentus); conditions: Postemergence; for Plant response rating (scale 0 to 100), Nutsedge, Yellow: 16 g ai/ha; for Plant response rating, Nutsedge, Yellow: 125 g ai/ha
Outline: as §1

[13] = tested on: morningglory (Ipomoea coccinea); conditions: Postemergence; for Plant response rating (scale 0 to 100), Morningglory: 16 g ai/ha; for Plant response rating, Morningglory: 125 g ai/ha
Outline: as §1

[14] = tested on: ragweed (common ragweed, Ambrosia elatior); conditions: Postemergence; for Plant response rating (scale 0 to 100), Ragweed: 16 g ai/ha; for Plant response rating, Ragweed: 125 g ai/ha
Outline: as §1

soybean (Glycine max) = conditions: Postemergence; for Plant response rating (scale 0 to 100), Soybean: 16 g ai/ha; for Plant response rating, Soybean: 125 g ai/ha
Outline: as §1

[15] = tested on: giant foxtail (Setaria faberii); conditions: Postemergence; for Plant response rating (scale 0 to 100), Foxtail, Giant: 16 g ai/ha; for Foxtail, Giant plant response rating: 31 g ai/ha, scale 0 to 100 (0 no effect, 100 complete control); for Plant response rating, Foxtail, Giant: scale 0 to 100, 0 no effect, 100 complete control
Outline: as §1

[16] = tested on: winter wheat (Triticum aestivum); conditions: Postemergence; for Plant response rating (scale 0 to 100), Wheat: 16 g ai/ha; for Plant response rating, Wheat: 125 g ai/ha
Outline: as §1

corn (Zea mays) = conditions: Postemergence; for Plant response rating (scale 0 to 100), Corn: 16 g ai/ha; for Corn plant response rating: 31 g ai/ha, scale 0 to 100 (0 no effect, 100 complete control); for Plant response rating, Corn: scale 0 to 100, 0 no effect, 100 complete control
Outline: as §1

[17] = 31 g ai/ha, scale 0 to 100 (0 no effect, 100 complete control)
[18] = 62 g ai/ha, scale 0 to 100, 0 no effect, 100 complete control
[19] = scale 0 to 100, 0 no effect, 100 complete control

Clc1cnc(Oc2ccccc2-c2cc(Cl)sn2)nc1 [Compound 192]
Plant response rating (scale 0 to 100), Lambsquarters [1]: 35
Lambsquarters plant response rating [1, 17]: 50
Lambsquarters plant response rating [1, 18]: 40
Plant response rating, Lambsquarters [1, 19]: 75
Plant response rating (scale 0 to 100), Oilseed Rape [2]: 0
Oilseed Rape plant response rating [2, 17]: 0
Oilseed Rape plant response rating [2, 18]: 5
Plant response rating, Oilseed Rape [2, 19]: 50
Plant response rating (scale 0 to 100), Barnyardgrass [3]: 5
Barnyardgrass plant response rating [3]: 5
Plant response rating, Barnyardgrass ([3]; 62 g ai/ha): 5
Plant response rating, Barnyardgrass ([3]; 125 g ai/ha): 5
Plant response rating (scale 0 to 100), Blackgrass [4]: 0
Blackgrass plant response rating [4]: 0
Plant response rating, Blackgrass ([4]; 62 g ai/ha): 0
Plant response rating, Blackgrass ([4]; 125 g ai/ha): 5
Plant response rating (scale 0 to 100), Crabgrass, Large [5]: 5
Crabgrass, Large plant response rating [5]: 5
Plant response rating, Crabgrass, Large ([5]; 62 g ai/ha): 10
Plant response rating, Crabgrass, Large ([5]; 125 g ai/ha): 10
Plant response rating (scale 0 to 100), Waterhemp [6]: 20
Waterhemp plant response rating [6, 17]: 40
Waterhemp plant response rating [6, 18]: 55
Plant response rating, Waterhemp [6, 19]: 70
Plant response rating (scale 0 to 100), Velvetleaf [7]: 20
Velvetleaf plant response rating [7, 17]: 20
Velvetleaf plant response rating [7, 18]: 30
Plant response rating, Velvetleaf [7, 19]: 55
Plant response rating (scale 0 to 100), Pigweed [8]: 15
Pigweed plant response rating [8, 17]: 20
Pigweed plant response rating [8, 18]: 55
Plant response rating, Pigweed [8, 19]: 55
Plant response rating (scale 0 to 100), Ryegrass, Italian [9]: 0
Ryegrass, Italian plant response rating [9, 17]: 0
Ryegrass, Italian plant response rating [9, 18]: 0
Plant response rating, Ryegrass, Italian [9, 19]: 0
Plant response rating (scale 0 to 100), Galium [10]: 35
Galium plant response rating [10]: 50
Plant response rating, Galium ([10]; 62 g ai/ha): 50
Plant response rating, Galium ([10]; 125 g ai/ha): 50
Plant response rating (scale 0 to 100), Johnsongrass [11]: 0
Johnsongrass plant response rating [11]: 5
Plant response rating, Johnsongrass ([11]; 62 g ai/ha): 5
Plant response rating, Johnsongrass ([11]; 125 g ai/ha): 5
Plant response rating (scale 0 to 100), Nutsedge, Yellow [12]: 0
Nutsedge, Yellow plant response rating [12, 17]: 5
Nutsedge, Yellow plant response rating [12, 18]: 0
Plant response rating, Nutsedge, Yellow [12, 19]: 5
Plant response rating (scale 0 to 100), Morningglory [13]: 0
Morningglory plant response rating [13, 17]: 0
Morningglory plant response rating [13, 18]: 10
Plant response rating, Morningglory [13, 19]: 45
Plant response rating (scale 0 to 100), Ragweed [14]: 0
Ragweed plant response rating [14, 17]: 5
Ragweed plant response rating [14, 18]: 15
Plant response rating, Ragweed [14, 19]: 45
Plant response rating (scale 0 to 100), Soybean (soybean (Glycine max)): 10
Soybean plant response rating (soybean (Glycine max); [17]): 30
Soybean plant response rating (soybean (Glycine max); [18]): 55
Plant response rating, Soybean (soybean (Glycine max); [19]): 85
Plant response rating (scale 0 to 100), Foxtail, Giant [15]: 10
Foxtail, Giant plant response rating [15]: 25
Plant response rating, Foxtail, Giant ([15]; 62 g ai/ha): 25
Plant response rating, Foxtail, Giant ([15]; 125 g ai/ha): 15
Plant response rating (scale 0 to 100), Wheat [16]: 0
Wheat plant response rating [16, 17]: 0
Wheat plant response rating [16, 18]: 5
Plant response rating, Wheat [16, 19]: 5
Plant response rating (scale 0 to 100), Corn (corn (Zea mays)): 0
Corn plant response rating (corn (Zea mays)): 0
Plant response rating, Corn (corn (Zea mays); 62 g ai/ha): 5
Plant response rating, Corn (corn (Zea mays); 125 g ai/ha): 10

FC(Cl)(Cl)c1cc(-c2ccccc2Oc2ncc(Cl)cn2)no1 [Compound 198]
Plant response rating (scale 0 to 100), Lambsquarters [1]: 10
Lambsquarters plant response rating [1, 17]: 55
Lambsquarters plant response rating [1, 18]: 70
Plant response rating, Lambsquarters [1, 19]: 75
Plant response rating (scale 0 to 100), Oilseed Rape [2]: 30
Oilseed Rape plant response rating [2, 17]: 50
Oilseed Rape plant response rating [2, 18]: 60
Plant response rating, Oilseed Rape [2, 19]: 90
Plant response rating (scale 0 to 100), Barnyardgrass [3]: 10
Barnyardgrass plant response rating [3]: 10
Plant response rating, Barnyardgrass ([3]; 62 g ai/ha): 20
Plant response rating, Barnyardgrass ([3]; 125 g ai/ha): 35
Plant response rating (scale 0 to 100), Blackgrass [4]: 5
Blackgrass plant response rating [4]: 5
Plant response rating, Blackgrass ([4]; 62 g ai/ha): 10
Plant response rating, Blackgrass ([4]; 125 g ai/ha): 15
Plant response rating (scale 0 to 100), Crabgrass, Large [5]: 10
Crabgrass, Large plant response rating [5]: 15
Plant response rating, Crabgrass, Large ([5]; 62 g ai/ha): 20
Plant response rating, Crabgrass, Large ([5]; 125 g ai/ha): 30
Plant response rating (scale 0 to 100), Waterhemp [6]: 85
Waterhemp plant response rating [6, 17]: 85
Waterhemp plant response rating [6, 18]: 95
Plant response rating, Waterhemp [6, 19]: 98
Plant response rating (scale 0 to 100), Velvetleaf [7]: 50
Velvetleaf plant response rating [7, 17]: 45
Velvetleaf plant response rating [7, 18]: 55
Plant response rating, Velvetleaf [7, 19]: 55
Plant response rating (scale 0 to 100), Pigweed [8]: 85
Pigweed plant response rating [8, 17]: 98
Pigweed plant response rating [8, 18]: 90
Plant response rating, Pigweed [8, 19]: 100
Plant response rating (scale 0 to 100), Ryegrass, Italian [9]: 0
Ryegrass, Italian plant response rating [9, 17]: 0
Ryegrass, Italian plant response rating [9, 18]: 10
Plant response rating, Ryegrass, Italian [9, 19]: 10
Plant response rating (scale 0 to 100), Galium [10]: 70
Galium plant response rating [10]: 75
Plant response rating, Galium ([10]; 62 g ai/ha): 98
Plant response rating, Galium ([10]; 125 g ai/ha): 98
Plant response rating (scale 0 to 100), Johnsongrass [11]: 5
Johnsongrass plant response rating [11]: 20
Plant response rating, Johnsongrass ([11]; 62 g ai/ha): 35
Plant response rating, Johnsongrass ([11]; 125 g ai/ha): 35
Plant response rating (scale 0 to 100), Nutsedge, Yellow [12]: 5
Nutsedge, Yellow plant response rating [12, 17]: 5
Nutsedge, Yellow plant response rating [12, 18]: 15
Plant response rating, Nutsedge, Yellow [12, 19]: 10
Plant response rating (scale 0 to 100), Morningglory [13]: 55
Morningglory plant response rating [13, 17]: 55
Morningglory plant response rating [13, 18]: 80
Plant response rating, Morningglory [13, 19]: 85
Plant response rating (scale 0 to 100), Ragweed [14]: 30
Ragweed plant response rating [14, 17]: 55
Ragweed plant response rating [14, 18]: 55
Plant response rating, Ragweed [14, 19]: 60
Plant response rating (scale 0 to 100), Soybean (soybean (Glycine max)): 10
Soybean plant response rating (soybean (Glycine max); [17]): 25
Soybean plant response rating (soybean (Glycine max); [18]): 30
Plant response rating, Soybean (soybean (Glycine max); [19]): 60
Plant response rating (scale 0 to 100), Foxtail, Giant [15]: 10
Foxtail, Giant plant response rating [15]: 15
Plant response rating, Foxtail, Giant ([15]; 62 g ai/ha): 15
Plant response rating, Foxtail, Giant ([15]; 125 g ai/ha): 25
Plant response rating (scale 0 to 100), Wheat [16]: 0
Wheat plant response rating [16, 17]: 0
Wheat plant response rating [16, 18]: 5
Plant response rating, Wheat [16, 19]: 5
Plant response rating (scale 0 to 100), Corn (corn (Zea mays)): 5
Corn plant response rating (corn (Zea mays)): 10
Plant response rating, Corn (corn (Zea mays); 62 g ai/ha): 15
Plant response rating, Corn (corn (Zea mays); 125 g ai/ha): 15

— US10131652B2, “Pyrimidinyloxy benzene derivatives as herbicides” (E. I. DU PONT DE NEMOURS AND COMPANY, priority 2014, dated 2018)
